Usually IC50 stands for the point on the concentration scale where inhibition reaches its midpoint.

The test system of experiment [1] is KB. Description: Cytotoxicity against human KB cells. Type of experiment: functional, cell-based.
Experiment [2] can be described thus: Cytotoxicity against human KBVIN cells. Type of experiment: functional, cell-based.
Experiment [3] has as its system DU-145. Description: Cytotoxicity against human DU145 cells. Type of experiment: functional, cell-based.
Experiment [4] deals with A549. Description: Cytotoxicity against human A549 cells. Type of experiment: functional, cell-based.
Experiment [5] deals with HepG2. The experiment is described as follows: Cytotoxicity against human HepG2 cells. Type of experiment: functional, cell-based.
A short description of experiment [6]: Cytotoxicity against human Hep3B cells. Type of experiment: functional, cell-based, Hep 3B2.
Experiment [7] is described as follows: Antiinflammatory activity in human neutrophils assessed as inhibition of fMLP/CB-indcued superoxide anion production. Type of experiment: functional, cell-based. The note with it: Neutrophil.
Experiment [8] in a line: Antiinflammatory activity in human neutrophils assessed as inhibition of fMLP/CB-induced elastase release. Type of experiment: functional, cell-based. The note with it: Neutrophil.
Experiment [9] deals with Neutrophil. The experiment is described as follows: Ratio of LY294002 IC50 to compound IC50 for inhibition of fMLP/CB-indcued elastase release in human neutrophils. Type of experiment: functional.

`COc1cc(O)c(C(=O)c2ccccc2)cc1O` [CEAROIN]: the IC50 in [1] was 35.3 µM; in [2], 32.2 µM; in experiment [3], > 10 µg/mL; in experiment [4], > 10 µg/mL.
With `COc1cc2oc(=O)cc(-c3ccccc3)c2cc1O` [DALBERGIN], the half-maximal inhibitory concentration (IC50) in [1], in experiment [2], in experiment [3] and in experiment [4] was > 10 µg/mL each time.
On to `COc1cccc2c1C(=O)c1c(O)c3c(c(O)c1C2=O)C[C@@](O)(C(=O)CO)C[C@@H]3O[C@H]1C[C@H](N)[C@H](O)[C@H](C)O1` [DOXORUBICIN], for which the IC50 was 1.29 µM in experiment [5] and 1.57 µM in experiment [6].
Turning to `O=c1cc(N2CCOCC2)oc2c(-c3ccccc3)cccc12` [LY-294002], the IC50 in experiment [7] turned out to be 3840 nM; in experiment [8] it was 6.48 µM.
Take `COC1=CC(=O)c2cc(-c3ccc(OC)c(O)c3)c3cc(O)c(OC)cc3c2C1=O` [PTEROLINUS K]: the IC50 was 990 nM in experiment [7]; > 10 µg/mL in [1]; > 10 µg/mL in experiment [5]; > 10 µg/mL in experiment [2]; 10.9 µM in experiment [6]; > 10 µg/mL in [3]. Besides, the IC50 in experiment [8] is 4.24 µM; in [4], > 10 µg/mL.
As to `COc1ccc(C(=O)/C=C/c2cc(O)c(OC)cc2O)cc1O` [PTEROLINUS L], the IC50 in experiment [1] was found to be 17.2 µM; in experiment [5], 20.4 µM; in [2], 22.4 µM; in experiment [6], 20.9 µM; in experiment [3], 29.8 µM; in experiment [8], 0.95 µM. Further, in experiment [4], the IC50 stood at 21.9 µM. Moreover, the “Ratio IC50” value in experiment [9] is on record as 6.

For the origin of these results see ChEMBL document CHEMBL1828505, “Bioactive components from the heartwood of Pterocarpus santalinus” (Bioorg Med Chem Lett, 2011).
